For five compounds, Fold induction and inhibition results are on record in patent US9067923B2, “Substituted quinoxalines” (Kyowa Hakko Kirin Co., Ltd., priority 2011, dated 2015).

The test system of data set [1] is CYP3A4. Kind of data set: Induction of CYP3A4 using HepaRG cells (midazolam metabolizing activity). The class given is in vitro ADME. The conditions noted are these: 1 μmol/L test compound, 72 hours, 1'-hydroxymidazolam formation relative to DMSO negative control. The procedure: CYP3A4-inducing activity was evaluated using HepaRG cells (Biopredic international). HepaRG cells were suspended in a medium at a concentration of 0.72×10^6 cells/mL and added in a volume of 100 μL to each well of a 96-well collagen coated plate (Biopredic international). The medium used for seeding HepaRG cells was HepaRG Thawing and Seeding Medium 670 (Biopredic international) and the medium used during treatment with a test compound was HepaRG Serum-free Induction Medium 650 (Biopredic international). Three days after the seeding of HepaRG cells, treatment with a test compound was started. After 200 μL of HepaRG Serum-free Induction Medium 650 was added to each well of the 96-well, collagen plate, a test compound dissolved in dimethylsulfoxide (DMSO) was added in a volume of 0.5 μL to each well so that the final concentration was 1 μmol/L. The well to which only DMSO was added was used as a negative control. The medium in the wells containing the test compound was replaced every 24 hours and the treatment with the test compound was continued for 72 hours. The fourth day after the start of the treatment with the test compound, midazolam, which is a typical substrate for CYP3A4, was added and CYP3A4-inducing activity was evaluated by measuring changes in the metabolic activity. The medium was removed by suction and each well was washed twice with PBS (150 μL/well) warmed to 37° C. HepaRG Serum-free Induction Medium 650 containing 20 μmol/L midazolam was warmed to 37° C. and added in a volume of 100 μL to each well. The plate was incubated in a CO2 incubator for 2 hours. At the end of the reaction, 70 μL of the reaction medium was recovered from each well and mixed with 70 μL of a methanol solution containing an internal standard (propranolol, 2 μmol/L). The mixture was centrifuged (at 5000×g at 4° C. for 10 minutes) and the supernatant was used as an analysis sample. The midazolam metabolizing activity was evaluated by measuring the amount of a produced metabolite by CYP3A4, 1′-hydroxymidazolam, by means of a liquid chromatograph-tandem mass spectrometry (LC-MS/MS). Agilent 1100 series (Agilent technologies) was used as the LC device, API2000 (AB sciex) was used as the MSMS device, and HTC PAL (CTC analytics) was used as the autosampler. CAPCELL PAK C18 ACR column (3 μm, 3 mm (I. D.)×35 mm, purchased from Shiseido Co., Ltd.) was used as the analytical column. The mobile phase A was 10 mmol/L aqueous ammonium acetate solution and the mobile phase B was methanol. The gradient conditions were 0 min (B=30%), 0.2 min (B=30%), 2.2 min (B=95%), 4 min (B=95%), 4.01 min (B=30%), 5 min (B=30%). The flow rate was 0.6 mL/min and the sample injection volume was 30 μL. The ions were detected by atmospheric pressure ionization mode using the MSMS device. The detection was performed by multiple reaction monitoring and the 1′-hydroxy midazolam ions were detected at m/z (precursor ion>product ion)=342.1>168.2.
The fold induction by each test compound was determined by using formula A2 below, which is for calculating the fold induction as the ratio of the metabolic activity in the test compound-treatment group to that of the negative control group (DMSO-treatment group).

Data set [2] concerns production of kynurenine in human gastric cancer cell line KATO-III. As to the kind of experiment: Inhibitory activity on the production of kynurenine (IFN-γ-treated KATO-III cells). The class given is cell-based. The conditions noted are these: 10 μmol/L test compound, KATO-III cells treated with IFN-γ, 96 hours. The procedure: This assay was performed by a modification of the method described in J. Biol. Chem., vol. 263, pp. 2041-2048 ([…]). For culture of the human gastric cancer cell line […], RPMI 1640 (GIBCO, 11875) supplemented with 10 vol % FBS (GIBCO, 10091-148, lot. 665285) was used. One μL of a test substance in a DMSO solution was diluted with 199 μL of the culture medium and placed in wells of a 384-well plate (10 μL/well). Next, IFN-γ (Sigma, I-3265) was added to a fresh culture medium to a concentration of 31.25 ng/mL, and KATO-III cells were suspended at 50,000 cells/mL in the culture medium. Forty μL of the suspension was added to each well (2,000 cells/well) and cultured under 5% CO2 at 37° C. for 96 hours. The final concentration of DMSO was limited to 0.1 vol % or less so that DMSO itself may not affect the kynurenine concentration measured in this assay. After the culture, 10 μL of a 30 w/v % aqueous trichloroacetic acid solution was added to each well, and incubation was performed at 65° C. for 30 minutes. The plate was centrifruged at 2,500×g for 5 minutes and 15 μL of the supernatant in each well was transferred into another 384-well plate. To the transferred supernatant, 15 μL of a 2 w/v % solution of p-dimethylaminobenzaldehyde in acetic acid was added, incubation was performed at 65° C. for 20 minutes and the absorbance was measured at 480 nm.
Sample: the absorbance value of the well to which DMSO solution containing a test substance was added and in which the cells were treated with IFN-γ.
Blank: the absorbance value of the well to which DMSO not containing a test substance was added and in which the cells were treated with IFN-γ.
Control: the absorbance value of the well to which DMSO not containing a test substance was added and in which the cells were not treated with IFN-γ.
The inhibition % of each test compound was calculated by formula A1.
In this assay, the expression of IDO in KATO-III cells is induced by IFN-γ treatment, and kynurenine in the culture medium is quantified. The kynurenine concentration in a culture medium is known to increase in proportion to the enzymatic activity of intracellular IDO (for example, J. Biol. Chem., vol. 263, pp. 2041-2048 (1988)). […] The production of kynurenine is known to be inhibited by IDO inhibitors (for example, J. Clin. Invest., vol. 117, No. 5, pp. 1147-1154 ([…])), and thus it is speculated that compounds (I) also have an inhibitory effect on IDO.

The compound `COCCS(=O)(=O)Nc1nc2ccccc2nc1O[C@H](c1ccc(-c2noc(C3CC3)n2)nc1)C(F)(F)F` [Compound 37, (R)-N-(3-(1-(6-(5-cyclopropyl-1,2,4-oxadiasol-3-yl)pyridin-3-yl)-2,2,2-trifluoroethoxy)quinoxalin-2-yl)-2-methoxyethanesulfonamide] returned a Fold induction in data set [1] of 1.33.
As to `CCCS(=O)(=O)Nc1nc2ccccc2nc1OC(c1ccc(-c2noc(C3CC3)n2)nc1)C(F)(F)F` (stereo not shown) [Compound 25, N-(3-(1-(6-(5-cyclopropyl-1,2,4-oxadiazol-3-yl)pyridin-3-yl)-2,2,2-trifluoroethoxy)quinoxalin-2-yl)propane-1-sulfonamide], the Fold induction in data set [1] amounted to 1.41. This compound also came in with an inhibition at 10 µM in data set [2] of no less than 80%.
Turning to `COCCS(=O)(=O)Nc1nc2ccccc2nc1O[C@H](c1ccc(-c2cnco2)nc1)C(F)(F)F` [Compound 30, (R)-2-methoxy-N-(3-(2,2,2-trifluoro-1-(6-(oxazol-5-yl)pyridin-3-yl)ethoxy)quinoxalin-2-yl)ethanesulfonamide], in data set [1], the Fold induction came out at 1.12. Further, in data set [2], the inhibition at 10 µM is no less than 80%.
`CCCS(=O)(=O)Nc1nc2ccccc2nc1O[C@H](c1ccc(-c2noc(C)n2)nc1)C(F)(F)F` [Compound 28, (R)-N-(3-(2,2,2-trifluoro-1-(6-(5-methyl-1,2,4-oxadiaxol-3-yl)pyridin-3-yl)ethoxy)quinoxalin-2-yl)propane-1-sulfonamide] gave a Fold induction in data set [1] of 1.27.
Same read-out and setting: to `COCCS(=O)(=O)Nc1nc2ccccc2nc1OC(c1ccc(-c2noc(C)n2)nc1)C(F)(F)F` (stereo not shown) [Compound 27, 2-methoxy-N-(3-(2,2,2-trifluoro-1-(6-(5-methyl-1,2,4-oxadiazol-3-yl)pyridin-3-yl)ethoxy)quinoxalin-2-yl) ethanesulfonamide] belongs 1.21.

By inhibition is commonly meant the relative decrease from the control value, in per cent. Read a low inhibition as little suppression.
